# Test results: patent US20130142734A1, “TARGETED DELIVERY SYSTEMS FOR DIAGNOSTIC APPLICATIONS” (priority 2010, published 2013)
# Several values for one entry are separate records, joined by “and”; a condition that tells them apart may be missing. Identical values can stand only once. Ends that are not written are not given here.
# Assays:
# [1] = Emission spectrum and fluorescence intensity of NIR dyes; type: physicochemical; conditions: excitation at 650 nm
# Experimental: FIG. 1 depicts the emission spectrum for NIR Dyes (ICG, IR-783, and 783-S-Ph-COOH) following excitation at 650 nm (A) and 690 nm (B).
# Fluorescence intensity of the NIR dyes was evaluated as well, following excitation at 650 nm (FIG. 2A).
# SW-480 cells [2] = test: Imaging of rectally implanted SW-480 tumors in female mice; type: in vivo
# Experimental: The ability of the probe to detect solid tumors in female mice bearing rectally tumors injected with SW-480 cells was tested. The mice were injected with 0.2 mg/200 μl of P-(GGFLGK (SEQ ID NO: 11)-IR783)2.5% and the whole body was imaged 4 and 24 h post injection. […] However images from excised organs taken 24 h post injection indicated a 4-fold increase in the average fluorescence efficiency between colon and tumor tissue (FIG. 8A).
# Cathepsin B = Cathepsin B (Homo sapiens, UniProt P07858); test: Cathepsin B degradation of the linker (fluorescence activation); type: biochemical; conditions: after 22 h of incubation; Cathepsin B 1.5 U, sodium acetate buffer pH 5.5
# Experimental: 0.5 mg polymer was dissolved in 1 ml sodium acetate buffer (pH=5.5). Cathepsin B (1.5 U) was added to the solution and incubate for 24 hours at 370 C. The fluorescence intensity (excitation 650 nm & 690 nm, emission range 820 nm) was measured every 30 minutes.
# The effects of IR-783-S-Ph-COOH loading on CB mediated fluorescence activation was tested.
# SW-480 cells [3] = test: Imaging of orthotopically implanted SW-480 colon tumors in nu/nu athymic mice; type: in vivo; conditions: for time post injection of accumulation in tumor area: 2 mg i.v., orthotopic SW-480 tumors
# Experimental: Three types of mouse models were employed to test the ability of the probes to detect solid tumors in the GI tract.
# Nu/nu athymic mice were injected orthotopically into the descending colon of female with SW-480 cells. After tumors reached ˜0.5 cm in diameter, mice were injected i.v. with 2 mg of IR-783 bearing polymeric probe. The results in the orthotopically implanted tumors confirm the accumulation of both P-(GGFLGK (SEQ ID NO: 11)-IR783)2.5% and P-(GGFLGK (SEQ ID NO: 11)-IR783)7.5% polymeric probes in tumor area about 4 h post injection and retention at the tumor site for at least 48 h.
# Biodistribution analysis indicated the presence of the probe in the tumor, kidneys, galbladder and the urine. The T/B ratio following whole body imaging (WBI) was 2.4 in mice treated with P-(GGFLGK (SEQ ID NO: 11)-IR783)7.5%, 4 h post injection (FIG. 6). […] The calculated ratio of the average fluorescence efficiency between colon and tumor tissue was ˜9 (FIG. 7).
# [4] = Effect of dye loading on fluorescence intensity and quenching of HPMA copolymer-IR783 conjugates; type: physicochemical; conditions: dissolved in DDW; Ex: 690 nm, Em: 820 nm
# Experimental: HPMA conjugates of various IR-783-S-Ph-COOH loadings were dissolved in DDW and their fluorescence intensity (Ex: 690 nm, Em: 820 nm). […] These observations confirm the decrease in fluorescence intensity with increasing the loading of IR-783-S-Ph-COOH on p-HPMA copolymer due to the quenching of fluorescent signal.
# The effect of NIR813 loading on p-HPMA-NIR813 quenching efficiency is shown in FIG. 3 and a complete quenching was achieved when the loading level of IR-783 on P—HPMA-IR-783 was 15%.
# P-(GGFLGK-IR783)7.5% = tested on: T1, P-(GGFLGK-IR783)7.5%
# T1 sequence: GGFLGK
# P-(GGFLGK-IR783)5% = tested on: T2, P-(GGFLGK-IR783)5%
# T2 sequence: GGFLGK
# P-(GGFLGK-IR783)2.5% = tested on: T3, P-(GGFLGK-IR783)2.5%
# T3 sequence: GGFLGK
# HT-29 cells = test: Imaging of rectal HT-29 tumors in female mice; type: in vivo
# Experimental: The ability of the probe to detect solid tumors in female mice bearing rectal tumors introduced via injection with HT-29 cells was also evaluated. After tumors reached ˜0.5 cm in diameter, mice were injected i.v. with 2 mg of IR-783 bearing polymeric probe. Mice were kept in metabolic cages throughout the experiment (48 h). The mice were injected with 1 mg/200 μl of P-(GGFLGK (SEQ ID NO: 11)-IR783)7.5% (CB cleavable linker) and the whole body was imaged 4, 24 and 48 h post injection. […] In images from excised organs taken 24 h post injection indicated only 1.5-fold increase in the average fluorescence efficiency between colon and tumor tissue (T/C) (1.64 and 1.3-fold of increase, FIG. 9b and FIG. 10b, respectively), due to the high background fluorescence along the gastrointestinal tract (stomach, colon and […]), even though treated in metabolic cages. Once the tumor to heart ratio (T/H) was measured, an increased of about 8-10-fold was calculated. When mice were injected with the polymeric probe with non-cleavable linker P-(AP-IR783)7.5%, and the whole body was imaged 4 post injection, the T/B ratio was 1.3.
molecule,measurement,setting,value
"CC1(C)C(=CC=C2CCCC(C=CC3=[N+](CCCCS(=O)(=O)O)c4ccccc4C3(C)C)=C2Cl)N(CCCCS(=O)(=O)O)c2ccccc21.[OH-] [IR-783, 2-[2-[2-Chloro-3-[2-[1,3-dihydro-3,3-dimethyl-1-(4-sulfobutyl)-2H-indol-2-ylidene]-ethylidene]-1-cyclohexen-1-yl]-ethenyl]-3,3-dimethyl-1-(4-sulfobutyl)-3H-indolium hydroxide]",maximal emission wavelength,[1],800 nm
"P-(GGFLGK-IR783)2.5%: HPMA copolymer bearing IR-783-S-Ph-COOH via degradable GGFLGK linker, 2.5 mol % dye loading (not fully specified (N-terminus); also: IR-783-S-Ph-COOH dye attached, site not given here)","T/B ratio in whole body imaging, 4 versus 24 h post injection",SW-480 cells [2]; 0.2 mg/200 μl,not significantly different
same,increase in the average fluorescence efficiency between colon and tumor tissue,"SW-480 cells [2]; excised organs 24 h post injection, 0.2 mg/200 μl, FIG. 8A",4 fold
same,increase in fluorescence intensity following CB degradation,Cathepsin B,2 fold
same,time post injection of accumulation in tumor area,SW-480 cells [3],about 4 h
same,calculated ratio of the average fluorescence efficiency between colon and tumor tissue,"SW-480 cells [3]; ex vivo, 48 h post injection, FIG. 7",~9
same,Biodistribution analysis: accumulation,SW-480 cells [3]; mice sacrificed 48 h post injection,"significant accumulation in the tumor, kidneys and gallbladder"
same,fluorescence intensity at λ=820 nm compared with copolymers of other dye loading,[4],highest fluorescence intensity
Cathepsin B,increase in the (fluorescence) intensity after 22 h of incubation with Cathepsin B,P-(GGFLGK-IR783)7.5%,4.9-fold
same,increase in the (fluorescence) intensity after 22 h of incubation with Cathepsin B,P-(GGFLGK-IR783)5%,3.6-fold
same,increase in signal intensity over time with Cathepsin B,P-(GGFLGK-IR783)2.5%,only 2-fold increase in signal intensity over time
CC1(C)C(/C=C/C2=C(Sc3ccc(C(=O)O)cc3)C(=C/C=C3\N(CCCCS(=O)(=O)O)c4ccccc4C3(C)C)/CCC2)=[N+](CCCCS(=O)(=O)[O-])c2ccccc21 [IR-783-S-Ph-COOH],maximal emission wavelength,[1],830 nm
"CC1(C)C(/C=C/C=C/C=C/C=C2\N(CCCCS(=O)(=O)O)c3ccc4ccccc4c3C2(C)C)=[N+](CCCCS(=O)(=O)[O-])c2ccc3ccccc3c21 [ICG, indocyanine green]",maximal emission wavelength,[1],810 nm
"P-(GGFLGK-IR783)5%: HPMA copolymer bearing IR-783-S-Ph-COOH via degradable GGFLGK linker, 5% dye loading (not fully specified; also: conjugated to HPMA copolymer via GGFLGK linker)",increase in fluorescence intensity following CB degradation,Cathepsin B,3.6 fold
"P-(GGFLGK-IR783)7.5%: HPMA copolymer bearing IR-783-S-Ph-COOH via degradable (CB cleavable) GGFLGK linker, 7.5% dye loading (not fully specified; also: conjugated to HPMA copolymer via GGFLGK linker)",ratio in the average fluorescence efficiency between colon and tumor tissue,"SW-480 cells [2]; excised tumor harvested 48 h post injection, FIG. 8b",~4
same,tumor accumulation with time,SW-480 cells [2]; whole body imaging,slight increase
same,increase in fluorescence intensity following CB degradation,Cathepsin B,4.9 fold
same,time post injection of accumulation in tumor area,SW-480 cells [3],about 4 h
same,T/B ratio following whole body imaging (WBI),"SW-480 cells [3]; 4 h post injection, 2 mg, FIG. 6",2.4
same,"T/B ratio in whole body imaging, 4 versus 24 h post injection","HT-29 cells; 1 mg/200 μl, HT-29 rectal model",not significantly different
same,increase in the average fluorescence efficiency between colon and tumor tissue (T/C),"HT-29 cells; excised organs taken 24 h post injection, 1 mg/200 μl",1.5 fold
same,tumor to heart ratio (T/H),"HT-29 cells; excised organs, 1 mg/200 μl",8-10 fold
same,"increase in the average fluorescence efficiency between colon and tumor tissue (T/C), single figures","HT-29 cells; excised organs, FIG. 9b and FIG. 10b, respectively, listed as P-(GGFLGK (SEQ ID NO: 11)-IR783)7.5%",1.64 fold and 1.3 fold
